{
  "source": "BindingDB's records for doi:10.1021/jm970265x",
  "about": "(Glaxo Wellcome Research and Development, 1997)",
  "target": "T1, Gastrin/cholecystokinin type B receptor (Homo sapiens, UniProt P32239)",
  "T1 sequence (P32239 whole entry)": "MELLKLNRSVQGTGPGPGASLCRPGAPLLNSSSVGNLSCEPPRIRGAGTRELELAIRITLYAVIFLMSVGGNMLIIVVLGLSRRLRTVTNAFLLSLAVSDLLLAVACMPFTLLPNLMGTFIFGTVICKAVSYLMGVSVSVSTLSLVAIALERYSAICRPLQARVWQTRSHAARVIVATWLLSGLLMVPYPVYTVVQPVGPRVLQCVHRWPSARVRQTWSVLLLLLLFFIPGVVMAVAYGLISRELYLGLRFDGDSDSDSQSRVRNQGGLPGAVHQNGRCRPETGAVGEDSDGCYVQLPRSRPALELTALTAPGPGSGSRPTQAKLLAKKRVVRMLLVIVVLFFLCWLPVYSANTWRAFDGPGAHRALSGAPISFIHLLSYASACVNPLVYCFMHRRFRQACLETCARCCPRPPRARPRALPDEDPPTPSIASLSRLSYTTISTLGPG",
  "note": "pKi: −log10 of the molar value. Several values for one entry are separate records, joined by “and”; a condition that tells them apart may be missing. Equal values may be shown once.",
  "data": [
    {"smiles": "CC(C)N(C(=O)CN1C(=O)C(Cc2n[nH]c3ccccc23)C(=O)N(c2ccccc2)c2ccccc21)c1ccc(C(F)(F)F)cc1", "note": "(stereo not drawn) [CCK-A Agonist 39]", "values": [
      {"measurement": "pKi", "result": 5.78}
    ]},
    {"smiles": "CC(C)N(C(=O)CN1C(=O)C(Cc2n[nH]c3ccccc23)C(=O)N(c2ccccc2)c2ccccc21)c1ccc2c(c1)OCO2", "note": "(stereo not drawn) [CCK-A Agonist 42]", "values": [
      {"measurement": "pKi", "result": 6.14}
    ]},
    {"smiles": "CC(C)N(C(=O)CN1C(=O)C(Cc2n[nH]c3ccccc23)C(=O)N(c2ccccc2)c2ccccc21)c1ccc(F)cc1", "note": "(stereo not drawn) [CCK-A Agonist 38]", "values": [
      {"measurement": "pKi", "result": "6.86 and 6.32"}
    ]},
    {"smiles": "COc1ccc(N(C(=O)CN2C(=O)C(Cc3n[nH]c4c(F)cccc34)C(=O)N(c3ccccc3)c3ccccc32)C(C)C)cc1", "note": "(stereo not drawn) [CCK-A Agonist 34]", "values": [
      {"measurement": "pKi", "result": 5.98}
    ]},
    {"smiles": "CC(C)(C)N(C(=O)CN1C(=O)C(Cc2n[nH]c3ccccc23)C(=O)N(c2ccccc2)c2ccccc21)c1ccccc1", "note": "(stereo not drawn) [CCK-A Agonist 45]", "values": [
      {"measurement": "pKi", "result": 6.05}
    ]},
    {"smiles": "CC(C)N(C(=O)CN1C(=O)C(Cc2n[nH]c3ccccc23)C(=O)N(c2ccccc2)c2ccccc21)c1ccccc1", "note": "(stereo not drawn) [CCK-A Agonist 37]", "values": [
      {"measurement": "pKi", "result": "7.06 and 6.75"}
    ]},
    {"smiles": "COc1cccc(N(C(=O)CN2C(=O)C(Cc3n[nH]c4ccccc34)C(=O)N(c3ccccc3)c3ccccc32)C(C)C)c1", "note": "(stereo not drawn) [CCK-A Agonist 40]", "values": [
      {"measurement": "pKi", "result": "6.32 and 6.72"}
    ]},
    {"smiles": "COc1ccccc1N(C(=O)CN1C(=O)C(Cc2n[nH]c3ccccc23)C(=O)N(c2ccccc2)c2ccccc21)C(C)C", "note": "(stereo not drawn) [CCK-A Agonist 41]", "values": [
      {"measurement": "pKi", "result": 6.89}
    ]}
  ]
}
